Experimental data published in US11602530B2, “CRM1 inhibitors for treating epilepsy” (Biogen MA Inc., priority 2016, dated 2023).

Key:
[1] = Body weight of treated mice in the pilocarpine TLE model; type: in vivo; conditions: 7.5 mg/kg per os every other day for two weeks
Experimental: Following the general procedure described in Example 1 and outlined in FIG. 1, Compound E1 of Table I was administered to mice during the treatment phase at 7.5 mg/kg per os every other day for the two weeks of treatment.

male NMRI mice = assay: Pilocarpine model of temporal lobe epilepsy (TLE), spontaneous recurrent seizures; type: in vivo; conditions: for reduction in seizure activity: 7.5 mg/kg per os every other day for two weeks
Experimental: FIG. 1 is a description of a pilocarpine model of temporal lobe epilepsy (TLE) in male NMRI mice. The treatment phase was compound E-1 in Table I administered at 7.5 mg/kg per os or vehicle, every other day for the two week treatment period. Vehicle was 0.6% plasdone PVP K29/32 and 0.6% poloxamer Pluronic F68 in water.
A well-established pilocarpine model of temporal lobe epilepsy (TLE) that has been recently optimized for mice can be used (Mazzuferi et al., Exp. Neurol. 238:156-67). Status epilepticus (SE) can be initiated with a single 300 mg/kg intraperitoneal (i.p.) injection of pilocarpine in male NMRI mice, 30 min after N-methylscopolamine bromide administration (1 mg/kg; i.p.). Within 10 to 45 min after pilocarpine treatment, animals display generalized tonic-clonic seizures that progress to continuous convulsive activity, i.e. SE. To limit the duration of SE, mice can be injected with a bolus dose of diazepam (10 mg/kg; i.p.) after 3 h. The mice typically show spontaneous recurrent seizures within few days after SE and continue to display them throughout their lifetime.
A separate cohort of animals (for example, n=40) can then undergo continuous monitoring for spontaneous recurrent seizures during 28 consecutive days beginning 8-10 weeks following pilocarpine induced SE. The seizure monitoring can be performed by simultaneous recording of locomotor activity with a 3D accelerometer and video. This system allows for automated detection of behavioral seizures by analysis of the accelerometry signal. All behavioral seizures can be scored according to the Racine's protocol after detailed review of corresponding video clips by experienced technical personnel. Secondary generalized seizures, a Racine's score of 3-5, will be quantified and used for calculation of total seizure counts. […]

SMILES: CC(C)(C)C(=O)NNC(=O)/C=C\n1cnc(-c2cc(C(F)(F)F)cc(C(F)(F)F)c2)n1 [Compound E-1, (Z)-3-(3-(3,5-bis(trifluoromethyl)phenyl)-1H-1,2,4-triazol-1-yl)-N′-pivaloylacrylohydrazide]
- change in body weight of the treated mice [1]: no change
- reduction in seizure occurrence in comparison to vehicle treated mice (male NMRI mice; a significant number of mice, chronic administration (FIG. 4)): 50%
- reduction in seizure activity (male NMRI mice; all treated mice (24 dosed)): ≥ 50%
- reduction in seizure activity (male NMRI mice; six of the treated mice): 100%
